{"source": "patent US12667586B2", "about": "“Treatments for ocular surface disorders” (Glaukos Corporation, priority 2023, dated 2026)", "key": {"[1]": {"test_system": "persistent epithelial defect (PED) of the cornea", "experiment": "Phase 2 randomized, double-masked, vehicle-controlled study in subjects with persistent epithelial defects (PED) from ocular chemical and/or thermal injuries", "format": "in vivo, human", "details": "for subjects who achieved corneal epithelial recovery (re-epithelialized by Day 28 and remained so for at least 28 days): topical under bandage contact lens and to fornices, Day 1, Day 2, Day 14 if not re-epithelialized, n=12, full data set", "from_the_text": "A Phase 2, Randomized, Prospective, Double-Masked, Vehicle-Controlled Study to Assess the Efficacy and Safety of Lufepirsen® (Lufepirsen) Applied Topically in Subjects with Persistent Epithelial Defects (PED) Resulting from Ocular Chemical and/or Thermal Injuries.\nThis Example describes the use of an exemplary connexin modulator (lufepirsen) in a randomized, prospective, vehicle-controlled, double-masked, human clinical trial to treat non-healing ocular surface defects. Lufepirsen is a connexin 43 antisense oligonucleotide according to SEQ ID NO:1. The vehicle comparator in the trial was Pluronic F-127.\nStudy Subjects: A total of 35 subjects were enrolled in this clinical trial. All eligible subjects presented with a non-infected, persistent epithelial defect (PED) of the cornea as a result of a chemical and/or thermal ocular injury, that was refractory to current standard of care for at least 14 days. Of the 35 subjects, 24 subjects received topical ocular dose administrations of […] and 11 subjects received Vehicle. […]\n• Corneal epithelial recovery, defined as a cornea that re-epithelializes by Day 28 of treatment and remains re-epithelialized for at least 28 days after initial re-epithelialization was first recorded, as assessed by the Investigator. Secondary Endpoints: • The time to epithelialization defined as the time from randomization to the time of initial re-epithelialization. • Improvement of visual acuity from baseline over the course of the study period. • Number of […] treatment doses required for recovery of the corneal epithelium. Exploratory Endpoints: • Change from baseline in PED area defined as the largest diameter times the largest one perpendicular to it, within the confines of the epithelial defect. • Corneal re-epithelialization, defined as a cornea that has re-epithelialized by Day 28 of treatment. • Change from baseline in ocular symptoms. • Primary, secondary, and exploratory endpoints were also assessed (as applicable) for the open-label section of the study. • Descriptive comparison of intrasubject corneal re-epithelization to fellow eye in subjects with bilateral injuries Safety: • Incidence of Treatment Emergent Adverse Events.\nTreatment Dosing: The study comprised of a 28-day Treatment Period, followed by a Post-treatment Follow-up Period of at least 28 days to evaluate both safety and re-epithelization status (durability), both of which were double-masked (i.e., double-blinded). Once determined to be eligible, subjects were randomized to receive either […] 0.06% or […] 0.006% or Vehicle in a 1:1:1 ratio respectively. Investigational product was applied under a bandage contact lens (BCL) and to the fornices of the study eye at the following time points during the Treatment Period: • Day 1 • Day 2 • Day 14 (if the cornea has not re-epithelialized)\nThe eye was then covered with a double eye pad and taped shut for approximately 8 hours.\nThree treatment arms were evaluated in the study. Randomization was in a 1:1:1 ratio: • GROUP A—[…] 0.06% • GROUP B—[…] 0.006% • GROUP C—Vehicle\nThere was a single application of investigational product on Day 1 and Day 2. A potential additional application of investigational product was scheduled at Day 14 if re-epithelialization has not occurred.\nThe first investigational product application occurred following randomization on Day 1 of the Treatment Period, with the second application administered on Day 2. […]"}, "[2]": {"target": "gap junctions (Homo sapiens)", "sequence (P08034 whole entry)": "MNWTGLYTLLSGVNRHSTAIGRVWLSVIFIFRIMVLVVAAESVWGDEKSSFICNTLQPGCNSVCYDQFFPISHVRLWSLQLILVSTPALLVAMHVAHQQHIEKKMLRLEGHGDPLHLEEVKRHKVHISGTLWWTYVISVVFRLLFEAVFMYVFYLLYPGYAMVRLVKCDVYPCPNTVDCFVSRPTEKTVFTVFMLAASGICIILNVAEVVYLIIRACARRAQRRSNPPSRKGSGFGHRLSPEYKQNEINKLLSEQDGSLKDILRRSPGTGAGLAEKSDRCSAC", "details": "at 17 μM; cited from earlier work"}, "gap junctions": {"test_system": "gap junctions", "details": "in some circumstances; cited from earlier work"}, "Cx43 hemichannels": {"target": "Cx43 hemichannels (Homo sapiens, UniProt P17302)", "sequence (P17302 2-382 limits assumed)": "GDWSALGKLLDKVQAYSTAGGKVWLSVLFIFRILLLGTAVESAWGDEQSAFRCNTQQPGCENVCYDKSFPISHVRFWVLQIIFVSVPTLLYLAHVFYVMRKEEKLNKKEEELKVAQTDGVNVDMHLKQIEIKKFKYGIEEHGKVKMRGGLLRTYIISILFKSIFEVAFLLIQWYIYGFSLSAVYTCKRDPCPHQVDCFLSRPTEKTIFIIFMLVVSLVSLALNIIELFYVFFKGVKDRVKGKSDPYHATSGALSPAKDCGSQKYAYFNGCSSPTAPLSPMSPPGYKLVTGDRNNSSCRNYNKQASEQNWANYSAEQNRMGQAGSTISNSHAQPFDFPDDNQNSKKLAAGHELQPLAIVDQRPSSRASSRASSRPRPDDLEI", "details": "cited from earlier work"}, "[3]": {"test_system": "ATP release in glioma cells", "details": "read-out: IC50 (half maximal inhibitory concentration) for the inhibition of ATP release; cited from earlier work"}}}
{"substance": "5′-GTAATTGCGGCAAGAAGAATTGTTTCTGTC-3′ (antisense GTAATTGCGGCAAGAAGAATTGTTTCTGTC; listed as DNA, chemistry not given here)", "values": [{"measurement": "subjects who achieved corneal epithelial recovery (re-epithelialized by Day 28 and remained so for at least 28 days)", "setting": "[1]; LUFEPIRSEN 0.006%", "result": 66.7, "unit": "%"}, {"measurement": "subjects who achieved corneal epithelial recovery (re-epithelialized by Day 28 and remained so for at least 28 days)", "setting": "[1]; LUFEPIRSEN 0.06%", "result": 66.7, "unit": "%"}, {"measurement": "tolerability of treatment (TEAEs)", "setting": "[1]; TEAEs across all 3 treatment groups mild to moderate, unlikely/unrelated to study drug, a SAE not related to study drug", "result": "well tolerated"}, {"measurement": "times more likely to heal than the vehicle group", "setting": "[1]; both LUFEPIRSEN doses pooled (n=24) vs VEH (n=11)", "result": 2.44, "unit": "times"}, {"measurement": "comparative improvement in corneal epithelial recovery over the VEH group", "setting": "[1]; both LUFEPIRSEN doses pooled (n=24) vs VEH (n=11), Fisher's exact test p=0.065", "result": 39.4, "unit": "%"}]}
{"substance": "GHGDPLHLEEVKC [^32Gap24, peptide that mimics a 13 amino acid long stretch of the L2 region of Cx32]", "values": [{"measurement": "effect on gap junctions", "setting": "[2]", "result": "without affecting gap junctions"}]}
{"substance": "VDCFLSRPTEKT [Peptide5]", "values": [{"measurement": "concentration at which incubation also leads to inhibition of gap junctions", "setting": "gap junctions", "result": "≥ 100", "unit": "µM"}, {"measurement": "concentration at which Cx43 hemichannels are inhibited", "setting": "Cx43 hemichannels", "result": "5 to 10", "unit": "µM"}]}
{"substance": "YGRKKRRQRRRKQIEIKKFK [TAT-^43Gap19]", "values": [{"measurement": "IC50", "setting": "[3]", "result": 7, "unit": "µM"}]}
